# According to patent US20040157866A1, “Amide compounds” (priority 2001, published 2004):
# What was measured:
# [1] = tested on: ddY-mice; assay: Test 2: Lipids Lowering Effect on ddY-Mice; format: in vivo; settings: male ddY-mice, oral dose 10 mg/kg, relative to baseline; for Cholesterol (% of 0 hr) 2 hr: plasma total-cholesterol 2 hours after administration; for Triglyceride (% of 0 hr) 2 hr: plasma triglyceride 2 hours after administration
# From the text: Test 2: Lipids Lowering Effect on ddY-Mice
# Male ddY-mice were housed in temperature- and humidity-controlled rooms and fed with laboratory chow. The animals were randomized according to their body weight and deprived of food just before the experiment. A blood sample (baseline blood sample) was collected from the retro orbital venous plexus before administration of the test drug, and then the animals were orally dosed with the test drug in a vehicle (aqueous solution of 0.5% methylcellulose). Blood samples were drawn at 2 hours after drug administration for the measurement of cholesterol and triglyceride.
# Plasma total-cholesterol and plasma triglyceride were determined by conventional enzyme methods using commercially available kits. The cholesterol CII-Test Wako (Wako Pure Chemical Industries, Ltd.) was used for the measurement of cholesterol, and the triglyceride E-test Wako (Wako Pure Chemical Industries, Ltd.) was used for the measurement of triglyceride.
# Lipids lowering effects were shown in percent relative to the baseline level (level at 0 hr).
# [2] = tested on: Apo B secretion; assay: Test 1: Measurement of Inhibition of Apo B Secretion (HepG2 cells, ELISA); format: cell-based; settings: 1 × 10^−8 M test compound, 15-hour incubation, 0.1% DMSO treated cells as controls; for inhibition at 0.01 µM: Homo sapiens
# Procedure: Test 1: Measurement of Inhibition of Apo B Secretion
# HepG2 cells were seeded in Eagles medium containing 10% fetal calf serum (FCS) at a density of 30000 cells/well in 96-well plates and allowed to grow for 3 days before treatment. At this time, the medium was replaced with fresh medium containing 0.1% dimethyl sulfoxide (DMSO) and the indicated concentrations of a test compound. After 15-hour incubation, the amount of Apo B and Apo AI accumulated in the media was determined by ELISA.
# The assay was carried out at room temperature. A flat bottomed micro ELISA plate (manufactured by Nunc) was coated with an anti Apo B monoclonal antibody solution ([…] in 0.05% carbonate buffer, pH 9.6) by adding the antibody solution at a volume of 100 μl per well. After 1-hour incubation on a plate mixer, the unbound materials were removed by washing the well 3 times with a washing buffer (phosphate buffered saline, pH 7.2 containing 0.1% bovine serum albumin and 0.05% Tween-20). Then 20 μl of a solution of the test compound (dissolved in the culture medium) and 100 μl of a solution of peroxidase coupled anti Apo B antibody were added. After 1-hour incubation on a plate mixer, washing was performed 3 times to remove the unbound materials. A freshly prepared substrate solution (2.5 mg/ml ortho-phenylene diamine and 0.018% H2O2 in 0.11M Na2HPO4-0.044 M sodium citrate buffer, pH 5.4) at a volume of 200 μl was then added to each well. After 20-minute incubation, the enzyme reaction was terminated by adding 50 μl of 0.5 M sulfuric acid. Absorbance of each well was determined at 490 nm using a microplate reader. Apo B concentration was calculated from a standard curve generated from purified Apo B standard that was run in parallel in the same plate. Inhibition of Apo B secretion by the test compound is calculated taking 0.1% DMSO treated cells as controls.
# Measurement of Apo AI was performed similar to that of Apo B, except for diluting the sample 11-fold with a dilution buffer (phosphate buffered saline, pH 7.2 containing 0.5% bovine serum albumin and 0.05% Tween-20).
# Apo B secretion inhibitors are identified as compounds that decrease Apo B secretion without affecting the secretion of Apo AI.
smiles,measurement,setting,value
"O=C(Nc1ccc2c(c1)CCN2CCc1ccccn1)c1ccccc1-c1ccc(C(F)(F)F)cc1 [Example 1, N-{1-[2-(2-Pyridinyl)ethyl]-2,3-dihydro-1H-indol-5-yl}-4′-(trifluoromethyl)-1,1′-biphenyl-2-carboxamide]",Cholesterol (% of 0 hr) 2 hr,[1],90 % of 0 hr
same,Triglyceride (% of 0 hr) 2 hr,[1],13 % of 0 hr
same,inhibition at 0.01 µM,[2],92.2%
"Nc1nc(CC(=O)N2CCc3cc(NC(=O)c4ccccc4-c4ccc(C(F)(F)F)cc4)ccc32)cs1 [Example 58, N-{1-[(2-amino-1,3-thiazol-4-yl)acetyl]-2,3-dihydro-1H-indol-5-yl}-4′-(trifluoromethyl)-1,1′-biphenyl-2-carboxamide]",inhibition at 0.01 µM,[2],90.7%
"O=C(Nc1ccc2c(c1)CCN2C(=O)Cc1ccccn1)c1ccccc1-c1ccc(C(F)(F)F)cc1 [Example 4, N-[1-(2-Pyridinylacetyl)-2,3-dihydro-1H-indol-5-yl]-4′-(trifluoromethyl)-1,1′-biphenyl-2-carboxamide]",Cholesterol (% of 0 hr) 2 hr,[1],75 % of 0 hr
same,Triglyceride (% of 0 hr) 2 hr,[1],13 % of 0 hr
same,Inhibition of Apo B secretion at 1 × 10^−8 M (%),[2],92.0%
"Cc1ccc(-c2cc(C)ccc2C(=O)Nc2ccc3c(c2)CCN3C(=O)Cc2ccccn2)cc1 [Example 11, 4′,5-Dimethyl-N-[1-(2-pyridinylacetyl)-2,3-dihydro-1H-indol-5-yl]-1,1′-biphenyl-2-carboxamide]",Inhibition of Apo B secretion at 1 × 10^−8 M (%),[2],97.2%
